Experimental data from the NIST ThermoML archive (doi:10.1016/j.tca.2010.01.005).

Assay: excess molar enthalpy (molar enthalpy of mixing); xn = mol fraction of the nth substance listed
Details: 303.15 K, 101 kPa, Liquid, Calvet calorimetry

c1ccoc1 [furan] + BrCBr
Details	excess molar enthalpy [kcal/mol]
x2 = 0.1499	0.0447
x2 = 0.2828	0.0554
x2 = 0.3405	0.0552
x2 = 0.4247	0.0507
x2 = 0.6268	0.0397
x2 = 0.7204	0.0344
x2 = 0.8358	0.0261
x2 = 0.9381	0.0131

BrCBr [dibromomethane] + CC#N
Details	excess molar enthalpy [kcal/mol]
x1 = 0.1028	0.0213
x1 = 0.2166	0.0349
x1 = 0.3067	0.0413
x1 = 0.4007	0.0428
x1 = 0.5547	0.0359
x1 = 0.6564	0.0256
x1 = 0.7022	0.0213
x1 = 0.8786	0.0055

BrCBr [dibromomethane] + CC(=O)c1ccccc1
Details	excess molar enthalpy [kcal/mol]
x1 = 0.1763	-0.0244
x1 = 0.3362	-0.0354
x1 = 0.4052	-0.0387
x1 = 0.4229	-0.0382
x1 = 0.5115	-0.0382
x1 = 0.6248	-0.0361
x1 = 0.7449	-0.0272
x1 = 0.852	-0.0182
